According to patent publication US10681909B2, “Herbicidal triazoles” (FMC Corporation, priority 2014, dated 2020):

Assays:
galium = test: Test C postemergence; assay type: in vivo, Galium aparine
Description: (§1) Seeds of plant species selected from blackgrass (Alopecurus myosuroides), ryegrass, Italian (Italian ryegrass, Lolium multiflorum), wheat (winter wheat, Triticum aestivum), galium (catchweed bedstraw, Galium aparine), corn (Zea mays), crabgrass, large (large crabgrass, Digitaria sanguinalis), foxtail, giant, (giant foxtail, Setaria faberii), johnsongrass (Sorghum halepense), lambsquarters (Chenopodium album), morningglory (Ipomoea coccinea), nutsedge, yellow (yellow nutsedge, Cyperus esculentus), pigweed (Amaranthus retroflexus), ragweed (common ragweed, Ambrosia elatior), soybean (Glycine max), barnyardgrass (Echinochloa crus-galli), oilseed rape (Brassica napus), waterhemp (common waterhemp, Amaranthus rudis), and velvetleaf (Abutilon theophrasti) were planted into a blend of loam soil and sand and treated preemergence with test chemicals formulated in a non-phytotoxic solvent mixture which included a surfactant. At the same time, plants selected from these crop and weed species and also chickweed (common chickweed, Stellaria media), oat, wild (wild oat, Avena fatua), and kochia (Kochia scoparia), were planted in pots containing Sunshine Redi-Earth® planting medium comprising spaghnum peat moss, vermiculite, starter nutrients and dolomitic limestone and treated with postemergence applications of test chemicals formulated in the same manner. Plants ranged in height from 2 to 18 cm (1- to 4-leaf stage) for postemergence treatments. […] A dash (-) response means no test result.

nutsedge, yellow = test: Test C postemergence; assay type: in vivo, Cyperus esculentus
Description: as §1

lambsquarters = test: Test C postemergence; assay type: in vivo, Chenopodium album
Description: as §1

waterhemp = test: Test C postemergence; assay type: in vivo, Amaranthus rudis
Description: as §1

pigweed [1] = test: Test C postemergence; assay type: in vivo, Amaranthus retroflexus
Description: as §1

pigweed [2] = test: Test A preemergence; assay type: in vivo, Amaranthus retroflexus; details: Amaranthus retroflexus, pre-emergence, 240 h, 0 to 100 scale (0 no effect, 100 complete control), read-out: Plant response rating, Pigweed
How it was run: (§2)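 Test chemicals in a non-phytotoxic solvent with surfactant were applied as a directed soil spray preemergence to seeds sown in loam/sand. Postemergence sprays went to plants 2–10 cm tall at the one- to two-leaf stage. A dash means no result.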

wheat = test: Test A postemergence; assay type: in vivo, Triticum aestivum; details: Triticum aestivum, post-emergence, 240 h, 0 to 100 scale (0 no effect, 100 complete control), approx. 10 d, read-out: Plant response rating, Wheat
How it was run: as §2

barnyardgrass [3] = test: Test A preemergence; assay type: in vivo, Echinochloa crus-galli; details: Echinochloa crus-galli, pre-emergence, 240 h, 0 to 100 scale (0 no effect, 100 complete control), read-out: Plant response rating, Barnyardgrass
How it was run: as §2

barnyardgrass [4] = test: Test A postemergence; assay type: in vivo, Echinochloa crus-galli; details: Echinochloa crus-galli, post-emergence, 240 h, 0 to 100 scale (0 no effect, 100 complete control), approx. 10 d, read-out: Plant response rating, Barnyardgrass
How it was run: as §2

soybean = test: Test C postemergence; assay type: in vivo, Glycine max
Description: as §1

pigweed [5] = test: Test A postemergence; assay type: in vivo, Amaranthus retroflexus; details: Amaranthus retroflexus, post-emergence, 240 h, 0 to 100 scale (0 no effect, 100 complete control), approx. 10 d, read-out: Plant response rating, Pigweed
How it was run: as §2

foxtail, giant [6] = test: Test A preemergence; assay type: in vivo, Setaria faberii; details: Setaria faberi, pre-emergence, 240 h, 0 to 100 scale (0 no effect, 100 complete control), read-out: Plant response rating, Foxtail, Giant
How it was run: as §2

corn [7] = test: Test A postemergence; assay type: in vivo, Zea mays; details: Zea mays, post-emergence, 240 h, 0 to 100 scale (0 no effect, 100 complete control), approx. 10 d
How it was run: as §2

corn [8] = test: Test C postemergence; assay type: in vivo, Zea mays
Description: as §1

oilseed rape = test: Test C postemergence; assay type: in vivo, Brassica napus
Description: as §1

crabgrass, large = test: Test C postemergence; assay type: in vivo, Digitaria sanguinalis
Description: as §1

velvetleaf = test: Test C postemergence; assay type: in vivo, Abutilon theophrasti
Description: as §1

wheat (winter wheat) = test: Test C postemergence; assay type: in vivo, Triticum aestivum
Description: as §1

ryegrass, Italian = test: Test C postemergence; assay type: in vivo, Lolium multiflorum
Description: as §1

foxtail, giant [9] = test: Test A postemergence; assay type: in vivo, Setaria faberii; details: Setaria faberi, post-emergence, 240 h, 0 to 100 scale (0 no effect, 100 complete control), approx. 10 d, read-out: Plant response rating, Foxtail, Giant
How it was run: as §2

CCOc1nc(-c2ccc(C(F)(F)F)cc2)nn1Cc1ccnc(C(F)(F)F)c1 [Compound 35, 4-[[5-ethoxy-3-[4-(trifluoromethyl)phenyl]-1H-1,2,4-triazole-1-yl]methyl]-2-(trifluoromethyl)pyridine]
Plant response rating (scale of 0 to 100 where 0 is no effect and 100 is complete control) (galium; 31 g ai/ha): 80
Plant response rating (scale of 0 to 100 where 0 is no effect and 100 is complete control) (galium; 62 g ai/ha): 80
Plant response rating (scale of 0 to 100 where 0 is no effect and 100 is complete control) (galium; 125 g ai/ha): 90
Plant response rating (scale of 0 to 100 where 0 is no effect and 100 is complete control) (galium; 250 g ai/ha): 90
Plant response rating (scale of 0 to 100 where 0 is no effect and 100 is complete control) (nutsedge, yellow; 31 g ai/ha): 20
Plant response rating (scale of 0 to 100 where 0 is no effect and 100 is complete control) (nutsedge, yellow; 62 g ai/ha): 10
Plant response rating (scale of 0 to 100 where 0 is no effect and 100 is complete control) (nutsedge, yellow; 125 g ai/ha): 30
Plant response rating (scale of 0 to 100 where 0 is no effect and 100 is complete control) (nutsedge, yellow; 250 g ai/ha): 35
Plant response rating (scale of 0 to 100 where 0 is no effect and 100 is complete control) (lambsquarters; 31 g ai/ha): 98
Plant response rating (scale of 0 to 100 where 0 is no effect and 100 is complete control) (lambsquarters; 62 g ai/ha): 95
Plant response rating (scale of 0 to 100 where 0 is no effect and 100 is complete control) (lambsquarters; 125 g ai/ha): 98
Plant response rating (scale of 0 to 100 where 0 is no effect and 100 is complete control) (lambsquarters; 250 g ai/ha): 100
Plant response rating (scale of 0 to 100 where 0 is no effect and 100 is complete control) (waterhemp; 31 g ai/ha): 98
Plant response rating (scale of 0 to 100 where 0 is no effect and 100 is complete control) (waterhemp; 62 g ai/ha): 98
Plant response rating (scale of 0 to 100 where 0 is no effect and 100 is complete control) (waterhemp; 125 g ai/ha): 95
Plant response rating (scale of 0 to 100 where 0 is no effect and 100 is complete control) (waterhemp; 250 g ai/ha): 98
Plant response rating (scale of 0 to 100 where 0 is no effect and 100 is complete control) (pigweed [1]; 31 g ai/ha): 98
Plant response rating (scale of 0 to 100 where 0 is no effect and 100 is complete control) (pigweed [1]; 62 g ai/ha): 98
Plant response rating (scale of 0 to 100 where 0 is no effect and 100 is complete control) (pigweed [1]; 125 g ai/ha): 100
Plant response rating (scale of 0 to 100 where 0 is no effect and 100 is complete control) (pigweed [1]; 250 g ai/ha): 100
pest or weed control at 31 g/ha (pigweed [2]; 31 g ai/ha): 100%
pest or weed control at 125 g/ha (pigweed [2]; 125 g ai/ha): 100%
plant injury at 31 g/ha (wheat; 31 g ai/ha): 40%
plant injury at 125 g/ha (wheat; 125 g ai/ha): 70%
pest or weed control at 31 g/ha (barnyardgrass [3]; 31 g ai/ha): 80%
pest or weed control at 125 g/ha (barnyardgrass [3]; 125 g ai/ha): 100%
pest or weed control at 31 g/ha (barnyardgrass [4]; 31 g ai/ha): 80%
pest or weed control at 125 g/ha (barnyardgrass [4]; 125 g ai/ha): 90%
Plant response rating (scale of 0 to 100 where 0 is no effect and 100 is complete control) (soybean; 31 g ai/ha): 55
Plant response rating (scale of 0 to 100 where 0 is no effect and 100 is complete control) (soybean; 62 g ai/ha): 65
Plant response rating (scale of 0 to 100 where 0 is no effect and 100 is complete control) (soybean; 125 g ai/ha): 65
Plant response rating (scale of 0 to 100 where 0 is no effect and 100 is complete control) (soybean; 250 g ai/ha): 70
pest or weed control at 31 g/ha (pigweed [5]; 31 g ai/ha): 100%
pest or weed control at 125 g/ha (pigweed [5]; 125 g ai/ha): 100%
pest or weed control at 31 g/ha (foxtail, giant [6]; 31 g ai/ha): 100%
pest or weed control at 125 g/ha (foxtail, giant [6]; 125 g ai/ha): 100%
Corn plant response rating (crop injury, 0 = no effect, 100 = complete kill) at 31 g/ha (corn [7]; 31 g ai/ha): 40%
Corn plant response rating (crop injury, 0 = no effect, 100 = complete kill) at 125 g/ha (corn [7]; 125 g ai/ha): 80%
Plant response rating (scale of 0 to 100 where 0 is no effect and 100 is complete control) (corn [8]; 31 g ai/ha): 25
Plant response rating (scale of 0 to 100 where 0 is no effect and 100 is complete control) (corn [8]; 62 g ai/ha): 20
Plant response rating (scale of 0 to 100 where 0 is no effect and 100 is complete control) (corn [8]; 125 g ai/ha): 25
Plant response rating (scale of 0 to 100 where 0 is no effect and 100 is complete control) (corn [8]; 250 g ai/ha): 50
Plant response rating (scale of 0 to 100 where 0 is no effect and 100 is complete control) (oilseed rape; Oilsee Rape, 250 g ai/ha): 98
Plant response rating (scale of 0 to 100 where 0 is no effect and 100 is complete control) (oilseed rape; Oilseed Rape, 31 g ai/ha): 80
Plant response rating (scale of 0 to 100 where 0 is no effect and 100 is complete control) (oilseed rape; Oilseed Rape, 62 g ai/ha): 90
Plant response rating (scale of 0 to 100 where 0 is no effect and 100 is complete control) (oilseed rape; Oilseed Rape, 125 g ai/ha): 80
Plant response rating (scale of 0 to 100 where 0 is no effect and 100 is complete control) (crabgrass, large; 31 g ai/ha): 35
Plant response rating (scale of 0 to 100 where 0 is no effect and 100 is complete control) (crabgrass, large; 62 g ai/ha): 60
Plant response rating (scale of 0 to 100 where 0 is no effect and 100 is complete control) (crabgrass, large; 125 g ai/ha): 70
Plant response rating (scale of 0 to 100 where 0 is no effect and 100 is complete control) (crabgrass, large; 250 g ai/ha): 80
Plant response rating (scale of 0 to 100 where 0 is no effect and 100 is complete control) (velvetleaf; 31 g ai/ha): 65
Plant response rating (scale of 0 to 100 where 0 is no effect and 100 is complete control) (velvetleaf; 62 g ai/ha): 75
Plant response rating (scale of 0 to 100 where 0 is no effect and 100 is complete control) (velvetleaf; 125 g ai/ha): 80
Plant response rating (scale of 0 to 100 where 0 is no effect and 100 is complete control) (velvetleaf; 250 g ai/ha): 85
Plant response rating (scale of 0 to 100 where 0 is no effect and 100 is complete control) (wheat (winter wheat); 31 g ai/ha): 15
Plant response rating (scale of 0 to 100 where 0 is no effect and 100 is complete control) (wheat (winter wheat); 62 g ai/ha): 20
Plant response rating (scale of 0 to 100 where 0 is no effect and 100 is complete control) (wheat (winter wheat); 125 g ai/ha): 35
Plant response rating (scale of 0 to 100 where 0 is no effect and 100 is complete control) (wheat (winter wheat); 250 g ai/ha): 30
Plant response rating (scale of 0 to 100 where 0 is no effect and 100 is complete control) (ryegrass, Italian; 31 g ai/ha): 30
Plant response rating (scale of 0 to 100 where 0 is no effect and 100 is complete control) (ryegrass, Italian; 62 g ai/ha): 55
Plant response rating (scale of 0 to 100 where 0 is no effect and 100 is complete control) (ryegrass, Italian; 125 g ai/ha): 60
Plant response rating (scale of 0 to 100 where 0 is no effect and 100 is complete control) (ryegrass, Italian; 250 g ai/ha): 80
pest or weed control at 31 g/ha (foxtail, giant [9]; 31 g ai/ha): 80%
pest or weed control at 125 g/ha (foxtail, giant [9]; 125 g ai/ha): 90%
